Experimental data published in article PMC4689404, “2-Benzazolyl-4-Piperazin-1-Ylsulfonylbenzenecarbohydroxamic Acids as Novel Selective Histone Deacetylase-6 Inhibitors with Antiproliferative Activity” (PLoS ONE, 2015).
Read-outs that look alike come from different tables or passages of the source.

Columns and labels:
[1] = test system: HCC4017 cells; assay: Annexin V apoptosis assay; assay type: cell-based, human; conditions: 18h, 40h, 64h
Experimental: For cell cycle analysis, cells were washed with PBS, fixed in 70% ethanol for 2 h, washed with PBS and resuspended in staining solution (0.1% Triton X-100, 0.2 mg/ml DNAse-free RNAse A and […]) and incubated at 37C for 15 min. Histograms were acquired on a BD FACSCalibur flow cytometer at UT Southwestern’s core facility. Apoptosis was measured using a FITC Annexin V Apoptosis Detection Kit I (BD Pharmingen) according to manufacturer’s protocol after treating cells with compounds as indicated in Figure legends.

[2] = biological target: T1, partially purified HDAC1 from mouse A20 cells (Mus musculus, UniProt O09106); assay: HDAC1 activity assay, partially purified enzyme, [3H]acetate-prelabeled histones; assay type: biochemical
T1 construct: from mouse A20 cells was used as enzyme source; endogenous in cells; host or cells: mouse A20 cells
T1 sequence (O09106 whole entry): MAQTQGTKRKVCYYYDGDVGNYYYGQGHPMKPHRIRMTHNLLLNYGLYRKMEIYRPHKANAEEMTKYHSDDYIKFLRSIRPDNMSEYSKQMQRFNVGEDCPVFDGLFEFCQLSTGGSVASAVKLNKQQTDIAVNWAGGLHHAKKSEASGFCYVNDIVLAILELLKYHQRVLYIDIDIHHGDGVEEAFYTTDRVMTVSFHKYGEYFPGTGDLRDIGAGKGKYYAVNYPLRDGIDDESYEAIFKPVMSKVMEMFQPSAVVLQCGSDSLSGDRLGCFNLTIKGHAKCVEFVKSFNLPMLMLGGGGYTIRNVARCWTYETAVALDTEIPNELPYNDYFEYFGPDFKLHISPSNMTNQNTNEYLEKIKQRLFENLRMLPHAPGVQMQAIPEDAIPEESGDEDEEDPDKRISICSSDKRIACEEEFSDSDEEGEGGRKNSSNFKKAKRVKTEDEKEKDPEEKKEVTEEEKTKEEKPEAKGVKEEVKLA
Excerpt: For inhibition assays, partially purified HDAC1 (70–80 fold enriched relative to crude samples) from mouse A20 cells was used as enzyme source. HDAC1 activity was purified by a combination of anion exchange chromatography (Mono Q), affinity chromatography (Poly-lysin agarose, Heparin Sepharose) and TSK size exclusion chromatography (Jesacher and Loidl, unpublished). HDAC1 protein was identified by immunoblotting using anti mouse HDAC1 antibodies (collaboration with Zymed Laboratories, Inc., San Francisco, California, USA). HDAC activity was determined as described by Sendra et al., [20] using [^3H]acetate-prelabeled chicken reticulocyte histones as substrate. 50 μL of mouse HDAC1 were incubated with different concentrations of compounds for 10 min on ice and 10 μL of total [^3H] acetate pre-labeled chicken reticulocyte histones (4 mg/mL) were added, resulting in a concentration of 41 μM. This mixture was incubated at 37°C for 1 h. The reaction was stopped by addition of 50 μL of 1 M HCl/0.4 M acetylacetate and 1 mL ethylacetate. After centrifugation at 10000 x g for 5 min an aliquot of 600 μL of the upper phase was counted for radioactivity in 3 mL liquid scintillation cocktail.

[3] = test system: Ovarian cancer cell lines; assay: NCI 60 screen, five dose; assay type: cell-based, human; conditions: for GI50: Homo sapiens; for no. cell lines used for the assay/no inhibited by compound: figures in parenthesis
[4] = test system: MALME-3M; assay: NCI 60 screen, five dose; assay type: cell-based; conditions: Homo sapiens, Melanoma, GI50 = molar concentration, read-out: Log10 GI50 (converted)
[5] = test system: RXF 393; assay: NCI 60 screen, five dose; assay type: cell-based; conditions: Homo sapiens, Renal Cancer, GI50 = molar concentration, read-out: Log10 GI50 (converted)
[6] = test system: MDA-MB-231/ATCC; assay: NCI 60 screen, five dose; assay type: cell-based; conditions: Homo sapiens, Breast Cancer, GI50 = molar concentration, read-out: Log10 GI50 (converted)
[7] = test system: LOX IMVI; assay: NCI 60 screen, five dose; assay type: cell-based; conditions: Homo sapiens, Melanoma, GI50 = molar concentration, read-out: Log10 GI50 (converted)
[8] = test system: NCI-H460; assay: NCI 60 screen, five dose; assay type: cell-based; conditions: Homo sapiens, Non-Small Cell Lung Cancer, GI50 = molar concentration, read-out: Log10 GI50 (converted)
[9] = test system: SW-620; assay: NCI 60 screen, five dose; assay type: cell-based; conditions: Homo sapiens, Colon Cancer, GI50 = molar concentration, read-out: Log10 GI50 (converted)
[10] = test system: IGROV1; assay: NCI 60 screen, five dose; assay type: cell-based; conditions: Homo sapiens, IGROV-1, Ovarian Cancer, GI50 = molar concentration, read-out: Log10 GI50 (converted)
[11] = test system: EKVX; assay: NCI 60 screen, five dose; assay type: cell-based; conditions: Homo sapiens, Non-Small Cell Lung Cancer, GI50 = molar concentration, read-out: Log10 GI50 (converted)
[12] = test system: Colon cancer cell lines; assay: NCI 60 screen, five dose; assay type: cell-based, human; conditions: for GI50: Homo sapiens; for no. cell lines used for the assay/no inhibited by compound: figures in parenthesis
[13] = test system: RPMI-8226; assay: NCI 60 screen, five dose; assay type: cell-based; conditions: Homo sapiens, Leukemia, GI50 = molar concentration, read-out: Log10 GI50 (converted)
[14] = test system: MCF7; assay: NCI 60 screen, five dose; assay type: cell-based; conditions: Homo sapiens, Breast Cancer, GI50 = molar concentration, read-out: Log10 GI50 (converted)
[15] = test system: DU-145; assay: NCI 60 screen, five dose; assay type: cell-based; conditions: Homo sapiens, Prostate Cancer, GI50 = molar concentration, read-out: Log10 GI50 (converted)
[16] = test system: ACHN; assay: NCI 60 screen, five dose; assay type: cell-based; conditions: Homo sapiens, Renal Cancer, GI50 = molar concentration, read-out: Log10 GI50 (converted)
[17] = test system: MDA-MB-435; assay: NCI 60 screen, five dose; assay type: cell-based; conditions: Homo sapiens, Melanoma, GI50 = molar concentration, read-out: Log10 GI50 (converted)
[18] = test system: NCI-H322M; assay: NCI 60 screen, five dose; assay type: cell-based; conditions: Homo sapiens, Non-Small Cell Lung Cancer, GI50 = molar concentration, read-out: Log10 GI50 (converted)
[19] = test system: HL-60(TB); assay: NCI 60 screen, five dose; assay type: cell-based; conditions: Homo sapiens, Leukemia, GI50 = molar concentration, read-out: Log10 GI50 (converted)
[20] = test system: SF-295; assay: NCI 60 screen, five dose; assay type: cell-based; conditions: Homo sapiens, CNS Cancer, GI50 = molar concentration, read-out: Log10 GI50 (converted)
[21] = test system: SF-539; assay: NCI 60 screen, five dose; assay type: cell-based; conditions: Homo sapiens, CNS Cancer, GI50 = molar concentration, read-out: Log10 GI50 (converted)
[22] = test system: Non-Small Cell Lung cancer cell lines; assay: NCI 60 screen, five dose; assay type: cell-based, human; conditions: NSCL cancer; for GI50: Homo sapiens; for no. cell lines used for the assay/no inhibited by compound: figures in parenthesis
[23] = test system: NCI-H23; assay: NCI 60 screen, five dose; assay type: cell-based; conditions: Homo sapiens, Non-Small Cell Lung Cancer, GI50 = molar concentration, read-out: Log10 GI50 (converted)
[24] = test system: M14; assay: NCI 60 screen, five dose; assay type: cell-based; conditions: Homo sapiens, Melanoma, GI50 = molar concentration, read-out: Log10 GI50 (converted)
[25] = test system: SNB-19; assay: NCI 60 screen, five dose; assay type: cell-based; conditions: Homo sapiens, CNS Cancer, GI50 = molar concentration, read-out: Log10 GI50 (converted)
[26] = test system: HOP-92; assay: NCI 60 screen, five dose; assay type: cell-based; conditions: Homo sapiens, Non-Small Cell Lung Cancer, GI50 = molar concentration, read-out: Log10 GI50 (converted)
[27] = test system: T-47D; assay: NCI 60 screen, five dose; assay type: cell-based; conditions: Homo sapiens, T47D, Breast Cancer, GI50 = molar concentration, read-out: Log10 GI50 (converted)
[28] = test system: NCI-H522; assay: NCI 60 screen, five dose; assay type: cell-based; conditions: Homo sapiens, Non-Small Cell Lung Cancer, GI50 = molar concentration, read-out: Log10 GI50 (converted)
[29] = test system: CAKI-1; assay: NCI 60 screen, five dose; assay type: cell-based; conditions: Homo sapiens, Renal Cancer, GI50 = molar concentration, read-out: Log10 GI50 (converted)
[30] = test system: SK-OV-3; assay: NCI 60 screen, five dose; assay type: cell-based; conditions: Homo sapiens, Ovarian Cancer, GI50 = molar concentration, read-out: Log10 GI50 (converted)
[31] = test system: OVCAR-8; assay: NCI 60 screen, five dose; assay type: cell-based; conditions: Homo sapiens, Ovarian Cancer, GI50 = molar concentration, read-out: Log10 GI50 (converted)
[32] = test system: NCI/ADR-RES; assay: NCI 60 screen, five dose; assay type: cell-based; conditions: Homo sapiens, Ovarian Cancer, GI50 = molar concentration, read-out: Log10 GI50 (converted)
[33] = test system: SK-MEL-28; assay: NCI 60 screen, five dose; assay type: cell-based; conditions: Homo sapiens, Melanoma, GI50 = molar concentration, read-out: Log10 GI50 (converted)
[34] = Table 3, partially purified HDAC1, read-out: HDAC1 IC50

| IC50 [2, 34] | Structure (SMILES) | Annexin V staining, percent of dead cells [1] | GI50 [3] | no. cell lines used for the assay/no inhibited by compound [3] | GI50 [4] | GI50 [5] | GI50 [6] | GI50 [7] | GI50 [8] | GI50 [9] | GI50 [10] | GI50 [11] | GI50 [12] | no. cell lines used for the assay/no inhibited by compound [12] | GI50 [13] | GI50 [14] | GI50 [15] | GI50 [16] | GI50 [17] | GI50 [18] | further results |
| --- | --- | --- | --- | --- | --- | --- | --- | --- | --- | --- | --- | --- | --- | --- | --- | --- | --- | --- | --- | --- | --- |
| 12.4 µM | Cn1c(N2CCN(S(=O)(=O)c3ccc(C(=O)NO)cc3)CC2)nc2ccccc21 [Compound 9b, 4-[4-(1-methylbenzimidazol-2-yl)piperazin-1-yl]sulfonylbenzenecarbohydroxamic acid] | did not show any reproducible significant changes |  |  |  |  |  |  |  |  |  |  |  |  |  |  |  |  |  |  | IC50 ([2]; partially purified HDAC1 from mouse A20 cells, Fig 4 and text, read-out: HDAC1 Inhibit (IC50)): ~12 µM |
| 5.7 µM | O=C(NO)c1ccc(S(=O)(=O)N2CCN(c3nc4ccccc4o3)CC2)cc1 [Compound 9c, 4-(4-Benzoxazol-2-yl-piperazin-1-sulfonyl)-N -hydroxy-benzamid] | did not show any reproducible significant changes | 7.66 µM | 2/5 | 1.38 µM | 4.47 µM | 13.2 µM | 10.7 µM | 10.7 µM | 4.37 µM | 11 µM | 8.91 µM | 6.05 µM | 4/6 | 0.38 µM | 3.8 µM | 7.41 µM | 21.4 µM | 3.63 µM | 14.5 µM | GI50 [19]: 5.89 µM; GI50 [20]: 3.09 µM; GI50 [21]: 3.72 µM; GI50 [22]: 9.51 µM; no. cell lines used for the assay/no inhibited by compound [22]: 3/9; GI50 [23]: 3.72 µM; GI50 [24]: 5.89 µM; GI50 [25]: 10 µM; GI50 [26]: 6.03 µM; GI50 [27]: 5.75 µM; GI50 [28]: 6.03 µM; GI50 [29]: 3.39 µM; GI50 [30]: 14.8 µM; GI50 [31]: 3.24 µM; GI50 [32]: 21.9 µM; GI50 [33]: 4.57 µM |
| 4.8 µM | O=C(NO)c1ccc(S(=O)(=O)N2CCN(c3nc4ccccc4s3)CC2)cc1 [Compound 9d, 4-(4-Benzothiazol-2-yl-piperazin-1-sulfonyl)-N -hydroxy-benzamid] |  | 4.01 µM | 3/3 | 2.57 µM | 2 µM | 5.01 µM | 2.51 µM | 5.13 µM | 1.66 µM | 3.55 µM | 4.37 µM | 2.3 µM | 6/7 | 1.38 µM | 15.8 µM | 3.02 µM | 4.57 µM | 1.86 µM | 5.62 µM | GI50 [19]: 2.57 µM; GI50 [20]: 1.86 µM; GI50 [21]: 2.34 µM; GI50 [22]: 3.77 µM; no. cell lines used for the assay/no inhibited by compound [22]: 4/9; GI50 [23]: 1.55 µM; GI50 [24]: 1.62 µM; GI50 [25]: 5.37 µM; GI50 [26]: 2.57 µM; GI50 [27]: 3.89 µM; GI50 [28]: 2.29 µM; GI50 [29]: 2.34 µM; GI50 [30]: 7.76 µM; GI50 [31]: 1.7 µM; GI50 [32]: 6.61 µM; GI50 [33]: 1.58 µM |
